Assay type in all cases: cell-based
One experiment relates to Jeko-1. The experiment is described as follows: In vitro potency against leukemia cell lines (CellTiter Glo). The settings on record: Homo sapiens, 72 hours, read-out: absolute IC50 JeKo-1. As for the experimental part: (§1) To prepare the complete medium FBS and appropriate additives were added according to the information sheet provided by the vendor and mixed gently. The cell name and complete medium and passage number marked on the flask were checked, and the culture medium removed and discarded using a vacuum pump. […] 3.0 ml of Trypsin-EDTA solution was added to the flask and the cells observed under an inverted microscope until cell layer is dispersed. 8.0 ml of complete growth medium was added and the cells aspirated by gently pipetting. The cell suspension was transferred to a centrifuge tube and centrifuged at 800-1000 rpm for 3-5 minutes. The supernatant was discarded using a vacuum pump, and an appropriate volume of complete medium added. The cell pellet was suspended by gently pipetting, and the cell numbers counted with Vi-cell XR and the cells adjusted to appropriate density. 100 μL of cell suspension to 96-well opaque-walled clear bottom plates was added according to the planned plate layout and the plates placed in the CO2 incubator overnight.
(§2) c. […] Meanwhile the day 0 plate was measured by Cell TiterGlo as listed below.
(§3) d. Cells were incubated with the compounds for 72 h at 5% CO2, 37° C.
(§4) The plate and its contents were equilibrated to room temperature for approximately 30 minutes, after which 100 μL of CellTiter-Glo reagent was added to the assay plate by Multidrop Combi instrument and the contents mixed for 10 minutes on an orbital shaker to induce cell lysis. The plate was allowed to incubate at room temperature for 10 minutes to stabilize luminescent signal and the clear bottom pasted with white back seal and the luminescence recorded with Enspire with the settings: Luminescence, measurement time 0.1 ms.
(§5) In all cases, the incubation time was 72 hours and the cell lines were grown as a suspension. The seeding density was […] in a 96 well plate.
On the technique in general: In ATP-based viability assays light output follows the ATP content of the culture.

The subject of a further experiment is KG-1. Described as above. The following applies: Homo sapiens, 72 hours, read-out: absolute IC50 KG-1. As for the experimental part: as §1, §2, §3, §4, §5
The test system of another experiment is HL-60. The experiment is described as above. The settings on record: Homo sapiens, 72 hours, read-out: absolute IC50 HL-60. As for the experimental part:
as §1, §2, §3, §4, §5

A further experiment deals with Molm-13. The description is as above. The settings on record: Homo sapiens, 72 hours, read-out: absolute IC50 Molm-13. As for the experimental part:
as §1, §2, §3, §4, §5

Another experiment has as its system MV-4-11. Described as above. The following applies: Homo sapiens, MV4-11; 72 hours; read-out: absolute IC50 MV-4-11. As for the experimental part:
as §1, §2, §3, §4, §5

For another experiment, the system named is Kasumi-3. Described as above. The settings on record: 72 hours, read-out: absolute IC50 Kasumi-3. As for the experimental part:
as §1, §2, §3, §4, §5

In a further experiment the test system is OCI-M1. The description is as above. The settings on record: 72 hours, read-out: absolute IC50 OCI-M1. As for the experimental part: as §1, §2, §3, §4, §5
The subject of another experiment is HCC1143. The experiment is described as follows: In vitro potency against breast cancer cell lines (CellTiter Glo). The following applies: Homo sapiens, HCC1143, 72 h; read-out: absolute IC50 HCC1143. As for the experimental part:
as §1, §2, §3
(§6) The CellTiter-Glo buffer was thawed and equilibrated to room temperature prior to use. The lyophilized CellTiter-Glo substrate was equilibrated to room temperature prior to use. The appropriate volume of CellTiter-Glo buffer was transferred into the amber bottle containing CellTiter-Glo substrate to reconstitute the lyophilized enzyme/substrate mixture, thereby forming the CellTiter-Glo reagent. Mixing was carried out by gently vortexing, swirling or by inverting the contents to obtain a homogeneous solution, the CellTiter-Glo substrate going into solution easily in less than one minute.
as §4

In a further experiment the test system is T-47D. The experiment is described as above. The settings on record: Homo sapiens, T47D, 72 h; read-out: absolute IC50 T-47D. As for the experimental part:
as §1, §2, §3, §6, §4

A further experiment relates to HCC38. The experiment is described as above. The settings on record: Homo sapiens, HCC38, 72 h; read-out: absolute IC50 HCC38. As for the experimental part: as §1, §2, §3, §6, §4
A further experiment concerns MDA-MB-361. The description is as above. The following applies: Homo sapiens, MDA-MB-361, 72 h; read-out: absolute IC50 MDA-MB-361. As for the experimental part: as §1, §2, §3, §6, §4
A further experiment relates to BT-474. The experiment is described as above. The following applies: Homo sapiens, BT-474, 72 h; read-out: absolute IC50 BT-474. As for the experimental part: as §1, §2, §3, §6, §4
Another experiment has as its system HCC1954. Described as above. The following applies: Homo sapiens, HCC1954, 72 h; read-out: absolute IC50 HCC1954. As for the experimental part:
as §1, §2, §3, §6, §4

The structures appear in SMILES notation.

In general, IC50 refers to the concentration that inhibits the measured activity by half. On to `Cn1c(=O)n(-c2ccc(C(C)(C)C#N)cc2)c2c3cc(-c4cnc5ccccc5c4)ccc3ncc21` [Dactolisib, dactolisib], for which the IC50 amounted to 67.8 nM in the experiment with Jeko-1; 90 nM in the experiment on KG-1; 430 nM with HL-60; 44.3 nM in the experiment with Molm-13; 36.5 nM in the experiment with MV-4-11; 105 nM in the experiment on Kasumi-3. In addition, the 50% inhibitory concentration (IC50) in the experiment on OCI-M1 stood at 125 nM; in the experiment with HCC1143 it was 145 nM; in the experiment with T-47D it was 56.5 nM; in the experiment with HCC38, 66.4 nM; in the experiment with MDA-MB-361, 30.1 nM; in the experiment on BT-474, 114 nM. The IC50 in the experiment with HCC1954 was 14.5 nM.

The record behind these values is US20250042918A1, “COMPOUNDS” (Fundación Del Sector Públlco Estatal Centro Nacional De …, priority 2021, published 2025).
